This note sets out measurements from ChEMBL document CHEMBL1135134, “Novel phthalimide derivatives, designed as leukotriene D(4) receptor antagonists” (Bioorg Med Chem Lett, 2002).

Assay [1] is filed under the species Cavia porcellus. Nature of the assay: Inhibitory contractile effect of compound in guinea-pig tracheal strips induced by LTD4 (100 nM) (% inhibition obtained by comparison with control group). The assay is classed as functional, Trachea.
For assay [2], the species on record is Cavia porcellus. Nature of the assay: Inhibitory contractile effect of compound in guinea-pig tracheal strips induced by LTD4 (100 nM) (% contraction, obtained in the vehicle presence 100.0%). The assay is classed as functional, Trachea.
The species entered for assay [3] is Cavia porcellus. Nature of the assay: 50% inhibitory concentration on the LTD4 (100 nM) induced contraction of guinea-pig tracheal strip bioassay. The note with it: Trachea. The assay is classed as functional.
Assay [4] is filed under the species Cavia porcellus. Nature of the assay: Maximum effect on the LTD4 (100 nM) induced contraction of guinea-pig tracheal strips bioassay. It is filed as functional. Conditions: Trachea.

pIC50: −log10 of the molar value.

The Inhibition is the change of the read-out against control, counted positive when it falls. Consider `O=C(O)c1ccc(COc2ccc(CCN3C(=O)c4ccccc4C3=O)cc2)cc1`, for which the Inhibition in the assay listed under Cavia porcellus [1] came to 6.3%. Further, the Contraction in the assay listed under Cavia porcellus [2] is reported as 93.7%.

With `O=C(O)CCCC(=O)Oc1ccc(CCN2C(=O)c3ccccc3C2=O)cc1`, the Inhibition in the assay filed under Cavia porcellus [1] is reported as 26.1%. For the same compound, the Contraction in the assay filed under Cavia porcellus [2] is recorded as 73.9%.

Take `CC(Oc1ccc(CCN2C(=O)c3ccccc3C2=O)cc1)C(=O)O` (configuration not stated): the Inhibition in the assay filed under Cavia porcellus [1] came out at 8.6%. The Contraction in the assay listed under Cavia porcellus [2] amounted to 91.4%.

Turning to `O=C(O)CCCCOc1ccc(CCN2C(=O)c3ccccc3C2=O)cc1`, the Inhibition in the assay listed under Cavia porcellus [1] came to 2.4%. The Contraction in the assay filed under Cavia porcellus [2] turned out to be 97.6%.

As a reminder, the pIC50 is the negative decadic logarithm of the IC50, by convention in mol/L. `COc1cc(C(=O)NS(=O)(=O)c2ccccc2C)ccc1Cc1cn(C)c2ccc(NC(=O)OC3CCCC3)cc12` [ZAFIRLUKAST] showed a pIC50 in the assay listed under Cavia porcellus [3] of 8.99.

One may read the Emax as the greatest response seen or fitted, relative to the assay's reference. Take `O=C1c2ccccc2C(=O)N1CCc1ccc(OCCCc2nn[nH]n2)cc1`: the Inhibition in the assay listed under Cavia porcellus [1] was 47.6%. In the assay listed under Cavia porcellus [2], this compound yielded a Contraction of 52.4%. Moreover, the pIC50 in the assay listed under Cavia porcellus [3] is 4.51. The compound further had an Emax in the assay listed under Cavia porcellus [4] of 100%.

Consider `O=C(O)COc1ccc(CCN2C(=O)c3ccccc3C2=O)cc1`, for which the Inhibition in the assay filed under Cavia porcellus [1] is -1.5%. In addition, in the assay listed under Cavia porcellus [2], the Contraction stood at 101.5%.

On to `O=C(O)CCCOc1ccc(CCN2C(=O)c3ccccc3C2=O)cc1`, for which the Inhibition in the assay filed under Cavia porcellus [1] was determined as 19.7%. Besides, the Contraction in the assay listed under Cavia porcellus [2] was found to be 80.3%.
